Counter-ions that a name gives are not always drawn.
Test system: diabetic GK rats
Assay: Modulation of glucose levels (glycaemia and oral glucose tolerance test) in diabetic GK rats
Assay type: in vivo, rat
Conditions: for % variation vs control (glycaemia after 4 days of treatment) / Glycaemia after 4 days of treatment: PO bid for 4 days, alone or combined; for Glycaemia before treatment: baseline before treatment
Procedure: Biological Test: Modulation of Glucose Levels with the Combinations of the Invention with Insulin Sensitisers
The capacity of the compounds of the invention in combination with insulin-sensitising antidiabetic compounds to modify the blood glucose levels is evaluated in vivo in diabetic GK rats.
Alone or in combination, the antidiabetic agents are administered twice a day (bid) to the GK rats for 4 days. The oral glucose tolerance test (OGTT) is performed after the last day of treatment.
OGTT is performed in the morning after 3 hours of fasting by oral administration of a glucose charge of 2 g/kg of body mass. The blood samples are collected from the tail vein at 0; 10; 20; 30; 45; 60; 90 and 120 minutes to determine the glucose levels.
The two compounds were administered alone and in combination. The doses used for the hydrochloride salt of (+)-2-amino-3,6-dihydro-4-dimethylamino-6-methyl-1,3,5-triazine were 50 and 100 mg/kg PO twice daily for 4 days.

[1] = GK rats, triazine salt 100 mg/kg, rosiglitazone 5 mg/kg

Structure (SMILES) | % variation vs control (glycaemia after 4 days of treatment) [1] [%] | Glycaemia after 4 days of treatment [1] [mmol/L] | Glycaemia before treatment (GK rats) [mmol/L] | fasted plasmatic glucose level (GK rats, 4 days, rosiglitazone 5 mg/kg, triazine salt 100 mg/kg) | glucose tolerance, compared with rosiglitazone (GK rats, OGTT, triazine salt 100 mg/kg vs rosiglitazone 5 mg/kg) | % decrease in AUC vs control (OGTT after 4 days of treatment PO bid, triazine salt 100 mg/kg, rosiglitazone 5 mg/kg) [%] | Glycaemia R under the curve (AUC) (OGTT, glucose 2 g/kg oral after 3 h fasting, 0-120 min, after 4 days of treatment PO bid, triazine salt 100 mg/kg, rosiglitazone 5 mg/kg)
CN(CCOc1ccc(CC2SC(=O)NC2=O)cc1)c1ccccn1 (stereo not shown) [Rosiglitazone, rosiglitazone, reference compound] | −19.7 | 10.52 ± 0.84 | 12.81 ± 0.27 | – | – | – | –
CC1N=C(N)NC(N(C)C)=N1 (single isomer, unassigned; (+)) [(+)-2-amino-3,6-dihydro-4-dimethylamino-6-methyl-1,3,5-triazine hydrochloride] | −16 | 11.01 ± 0.37 | 12.95 ± 0.41 | induced a decrease | better glucose tolerance | −19.6 | 2688 +/− 99

— patent US8791115B2, “Combination of triazine derivatives and insulin sensitisers” (Poxel SAS, priority 2006, dated 2014)
